Reference: patent US20200316038A1, “METHODS AND COMPOSITIONS FOR TREATING UREA CYCLE DISORDERS, IN PARTICULAR OTC DEFICIENCY” (CAMP4 THERAPEUTICS CORPORATION, priority 2017, published 2020)
Where two headings read alike, the source gives them in different places.

B1: Wnt3a: WNT family secreted signaling protein; FRIZZLED activator (protein, UniProt P56704 19-352, looked up)
Protein Wnt-3a: SYPIWWSLAVGPQYSSLGSQPILCASIPGLVPKQLRFCRNYVEIMPSVAEGIKIGIQECQHQFRGRRWNCTTVHDSLAIFGPVLDKATRESAFVHAIASAGVAFAVTRSCAEGTAAICGCSSRHQGSPGKGWKWGGCSEDIEFGGMVSREFADARENRPDARSAMNRHNNEAGRQAIASHMHLKCKCHGLSGSCEVKTCWWSQPDFRAIGDFLKDKYDSASEMVVEKHRESRGWVETLRPRYTYFKVPTERDLVYYEASPNFCEPNPETGSFGTRDRTCNVSSHGIDGCDLLCCGRGHNARAERRREKCRCVFHWCCYVSCQECTRVYDVHTCK
B2: Nodal: 13 kDa member of the TGF-B superfamily (protein, UniProt Q96S42 238-347, looked up)
Nodal homolog: HHLPDRSQLCRKVKFQVDFNLIGWGSWIIYPKQYNAYRCEGECPNPVGEEFHPTNHAYIQSLLKRYQPHRVPSTCCAPVKTKPLSMLYVDNGRVLLDHHKDMIVEECGCL
B3: Anti mullerian hormone: member of the TGF-B gene family (protein, UniProt P03971 452-560, looked up)
Muellerian-inhibiting factor: SAGATAADGPCALRELSVDLRAERSVLIPETYQANNCQGVCGWPQSDRNPRYGNHVVLLLKMQVRGAALARPPCCVPTAYAGKLLISLSEERISAHHVPNMVATECGCR
B4: GDF2 (BMP9): member of BMP family and the TGF-B superfamily (protein, UniProt Q9UK05 320-429, looked up)
Growth/differentiation factor …: SAGAGSHCQKTSLRVNFEDIGWDSWIIAPKEYEAYECKGGCFFPLADDVTPTKHAIVQTLVHLKFPTKVGKACCVPTKLSPISVLYKDDMGVPTLKYHYEGMSVAECGCR

Experiments:
SLC25A15 = experiment: RNA-seq, SLC25A15 expression in compound-treated primary human hepatocytes; format: cell-based; settings: compounds that significantly increase SLC25A15 expression
ASS1 = experiment: RNA-seq, ASS1 expression in compound-treated primary human hepatocytes; format: cell-based
CPS1 = experiment: RNA-seq, CPS1 expression in compound-treated primary human hepatocytes; format: cell-based
OTC [1] = experiment: RNA-seq, OTC expression in compound-treated primary human hepatocytes; format: cell-based
[2] = tested on: multiple urea cycle-related genes; experiment: RNA-seq, compounds that modulate multiple urea cycle-related genes; format: cell-based; settings: primary human hepatocytes; for Up-regulated Genes: urea cycle-related genes significantly increased by the compound
ARG1 = experiment: RNA-seq, ARG1 expression in compound-treated primary human hepatocytes; format: cell-based
ASL = experiment: RNA-seq, ASL expression in compound-treated primary human hepatocytes; format: cell-based
OTC [3] = experiment: OTC expression modulated by compounds (OTC/Geo Mean of HKs, DMSO = 1); format: cell-based, human; settings: OTC expression; compound at 10 uM final concentration
OTC [4] = experiment: siRNA transfection of primary human hepatocytes, OTC qPCR; format: cell-based; settings: siRNA 10 nM, 48hrs, vs control non-targeting siRNA
Description: Primary human hepatocytes were reversed transfected with 6pmol siRNA using RNAiMAX Reagent (ThermoFisher Cat No13778030) in 24 well format, 1 ul per well (for a final cone of 10 nM). The following morning, the medium was removed and replaced with Modified Maintenance Medium (see above) for an additional 24 hrs. The entire treatment lasted 48hrs, at which point the medium was removed and replaced with RLT Buffer for RNA extraction (Qiagen RNeasy 96 QIAcube HT Kit Cat#74171). siRNAs were obtained from Dharmacon and are a pool of four siRNA duplex all designed to target distinct sites within the specific gene of interest (known as “SMARTpool”). They were tested against the control non-targeting siRNA D-001206-13-05.
Isolated RNA was processed for cDNA synthesis and qPCR as described above. Taqman assay used for OTC measurement: Hs00166892_m1

HSP90 = settings: cited from earlier work
calcium channel = calcium channel blocker; cited from earlier work
[5] = RNA-seq, primary human hepatocytes, compounds that significantly increase ARG1 expression
[6] = RNA-seq, primary human hepatocytes, compounds that significantly increase ASL expression
[7] = RNA-seq, primary human hepatocytes, compounds that significantly increase NAGS expression

Row | Molecule | SLC25A15 expression, Fold change (Log 2) vs untreated (SLC25A15) | Fold change (Log 2) vs untreated (ASS1) | Fold change (Log 2) vs untreated (CPS1) | Fold change (Log 2) vs untreated (OTC [1]) | number of urea cycle genes whose expression was significantly up-regulated [2] | Up-regulated Genes [2] | ARG1 expression, Fold change (Log 2) vs untreated (ARG1; [5]) | other results
1 | C[C@]12C[C@H](O)[C@H]3[C@@H](CCC4=CC(=O)CC[C@@]43C)[C@@H]1CC[C@@H]2C(=O)CO [Corticosterone] | 0.96 Log 2 |  |  |  |  |  |  | 
2 | O=C1NC(=O)/C(=C/c2cccc(C(F)(F)F)c2)S1 [SMI-4a] |  | 0.69 Log 2 |  |  |  |  |  | NAGS expression, Fold change (Log 2) vs untreated (NAGS): 1.25 Log 2
3 | PDGF | 0.71 Log 2 |  | 2.12 Log 2 | 0.77 Log 2 | four | CPS1, OTC, ARG1, SLC25A15 | 1.85 Log 2 | 
4 | HGF/SF: Hepatocyte Growth Factor, scatter factor; c-Met activator |  |  | 2.02 Log 2 | 0.56 Log 2 | four | NAGS, CPS1, OTC, ARG1 | 1.51 Log 2 | NAGS expression, Fold change (Log 2) vs untreated (NAGS): 0.56 Log 2
5 | O=C1CCC(N2C(=O)c3ccccc3C2=O)C(=O)N1 (stereo not shown) [Thalidomide] |  |  | 1.02 Log 2 | 1.21 Log 2 | five | NAGS, CPS1, ALS, OTC, ARG1 | 1.16 Log 2 | NAGS expression, Fold change (Log 2) vs untreated (NAGS): 1.1 Log 2; ASL expression, Fold change (Log 2) vs untreated (ASL; [6]): 0.56 Log 2
6 | COc1cccc2c1C(=O)c1c(O)c3c(c(O)c1C2=O)C[C@@](O)(/C(CO)=N/NC(=O)CCCCCN1C(=O)C=CC1=O)C[C@@H]3O[C@H]1C[C@H](N)[C@H](O)[C@H](C)O1 [INNO-206 (aldoxorubicin), aldoxorubicin] |  | 0.58 Log 2 |  | 0.87 Log 2 | three | NAGS, ASS1, OTC |  | NAGS expression, Fold change (Log 2) vs untreated (NAGS; [7]): 1.63 Log 2; Max Value (OTC/Geo Mean of HKs; DMSO = 1) (OTC [3]): 2.36
7 | TNF-α |  | 0.58 Log 2 | 2.31 Log 2 | 0.87 Log 2 | four | CPS1, ASS1, OTC, ARG1 | 1.87 Log 2 | 
8 | C[C@]12CC[C@H]3[C@@H](CCC4=CC(=O)CC[C@@]43C)[C@@H]1CC[C@@H]2C(=O)CO [Deoxycorticosterone] |  | 0.6 Log 2 | 3.79 Log 2 |  | four | CPS1, ASS1, ARG1, SLC25A15 | 1.37 Log 2 | 
9 | IRF1 (DNA GAAAGTGAAAGT; siRNA; chemistry not fully specified) |  |  |  |  |  |  |  | Max fold change in OTC (OTC [4]): 1.70
10 | Yy1 |  |  |  |  |  |  |  | Max fold change in OTC (OTC [4]): 1.71
11 | IGF-1: Insulin-like growth factor I; IGF-1R activator | 0.8 Log 2 |  | 2.22 Log 2 | 0.76 Log 2 | four | CPS1, OTC, ARG1, SLC25A15 | 1.89 Log 2 | Max fold change in OTC (OTC [4]): 1.69
12 | Activin |  |  | 2.23 Log 2 | 0.94 Log 2 | four | NAGS, CPS1, OTC, ARG1 | 2.01 Log 2 | NAGS expression, Fold change (Log 2) vs untreated (NAGS): 0.69 Log 2
13 | CN(C)[C@@H]1C(O)=C(C(N)=O)C(=O)[C@@]2(O)C(O)=C3C(=O)c4c(O)c(NC(=O)CN5CCCC5)cc(F)c4C[C@H]3C[C@@H]12 [TP-434 (Eravacycline), Eravacycline] |  | 0.76 Log 2 |  |  |  |  |  | NAGS expression, Fold change (Log 2) vs untreated (NAGS; [7]): 1.5 Log 2
14 | CNC[C@H](O)c1ccc(O)c(O)c1 [Epinephrine] | 1.14 Log 2 | 1.08 Log 2 | 4.85 Log 2 |  | five |  |  | ASL expression, Fold change (Log 2) vs untreated (ASL): 0.6 Log 2; ARG1 expression, Fold change (Log 2) vs untreated (ARG1): 2.28 Log 2
15 | EGF: Epidermal Growth Factor; Pan-ErbB activator |  |  | 1.93 Log 2 | 0.64 Log 2 | three | CPS1, OTC, ARG1 | 1.46 Log 2 | 
16 | COc1nc(N)nc2c1ncn2[C@@H]1O[C@H](COP(=O)(N[C@@H](C)C(=O)OCC(C)(C)C)Oc2cccc3ccccc23)[C@@H](O)[C@@]1(C)O (stereo partly shown) [bms-986094 (inx-189)] | 1.18 Log 2 |  |  |  |  |  |  | 
18 | CCOC(=O)C1=C(COCCN)NC(C)=C(C(=O)OC)C1c1ccccc1Cl (stereo not shown) [Amlodipine Besylate] |  |  |  |  |  |  |  | NAGS expression, Fold change (Log 2) vs untreated (NAGS; [7]): 0.73 Log 2; IC50 (calcium channel): 1.9 nM
19 | Cc1cc(-c2nc(-c3ccc(OC(F)(F)F)cc3)no2)nn1Cc1ccnc(N2CCN(C3CC3)CC2)c1 [BAY 87-2243] |  |  | 1.81 Log 2 |  | three | CPS1, ASL, ARG1 | 1.09 Log 2 | ASL expression, Fold change (Log 2) vs untreated (ASL; [6]): 0.58 Log 2
20 | B1 | 0.7 Log 2 |  | 2.6 Log 2 | 0.92 Log 2 | four | CPS1, OTC, ARG1, SLC25A15 | 2.07 Log 2 | 
21 | B2 |  |  | 2.44 Log 2 | 0.68 Log 2 | three | CPS1, OTC, ARG1 | 2.05 Log 2 | 
22 | B3 |  |  | 2.35 Log 2 | 0.81 Log 2 | three | CPS1, OTC, ARG1 | 2.06 Log 2 | 
23 | B4 | 1.09 Log 2 | 1.34 Log 2 | 3.46 Log 2 |  | five |  | 1.79 Log 2 | NAGS expression, Fold change (Log 2) vs untreated (NAGS): 0.63 Log 2
